Assay results as given in US8946237B2, “Pyrazolo[1,5-A]pyrimidines as mark inhibitors” (Merck Sharp & Dohme Corp., priority 2010, dated 2015).

Assays:
MARK3 = molecular target: T1, MARK3 (Homo sapiens, UniProt P27448); assay: MARK 3 Assay (HTRF, Cdc25C biotinylated peptide substrate); format: biochemical; details: 10 μM ATP, 10 nM recombinant MARK3 enzyme
T1 construct: purchased University of Dundee
Procedure: MARK3 activity was assayed in vitro using a Cdc25C biotinylated peptide substrate (Cell Signalling Technologies). The phosphopeptide product was quantitated using a Homogenous Time-Resolved Fluorescence (HTRF) assay system (Park et al., 1999, Anal. Biochem. 269:94-104). The reaction mixture contained 50 mM HEPES/Tris-HCl, pH 7.4; 10 mM NaCl, 5 mM MgCl2, 0.2 mM NaVO4, 5 mM β-glycerol phosphate, 0.1% Tween-20, 2 mM dithiothreitol, 0.1% BSA, 10 μM ATP, 1 μM peptide substrate, and 10 nM recombinant MARK3 enzyme (University of Dundee) in a final volume of 12 μL. The buffer additionally contained protease inhibitor cocktail (Roche EDTA-free, 1 tab per 50 ml). The kinase reaction was incubated for 2 hours at 25° C., and then terminated with 3 μl Stop/Detection Buffer (50 mM HEPES, pH 7.0, 16.6 mM EDTA, 0.5M KF, 0.1% Tween-20, 0.1% BSA, 2 μg/ml SLX^ent 665 (CISBIO), and 2 μg/mL Eu^3+ cryptate label antibody (CISBIO)). The reaction was allowed to equilibrate overnight at 0° C., and relative fluorescent units were read on an HTRF enabled plate reader (e.g. TECAN GENios Pro).
Inhibitor compounds were assayed in the reaction described above to determine compound IC50s. Aliquots of compound dissolved in DMSO were added to the reaction wells in a third-log dilution series covering a range of 1 nM to 10 μM. Relative phospho substrate formation, read as HTRF fluorescence units, was measured over the range of compound concentrations and a titration curve generated.

[1] = Mean Arterial Pressure in anesthetized dogs; format: in vivo
Excerpt: The compounds of Formula I disclosed herein are also useful as blood pressure lowering agents and thus useful for the treating hypertension. Arterial hypertension has been identified as a strong causal factor in cardiovascular disease. An embodiment of the invention encompasses a method for treating or preventing cardiovascular disease comprising administering to a patient in need thereof a compound of Formula I, either as a single agent or in combination with other standard of care agents. It is postulated that compounds of the invention lower blood pressure by interfering with binding of tau and other microtubule associated proteins (MAP) to microtubules. Inhibiting the depolymerization of tubulin is the proposed cause of vasorelaxation leading to blood pressure lowering. […] Example 4 disclosed herein lowered Mean Arterial Pressure by 25% when it was dosed at 5 mg/kg cumulatively over the course of 90 minutes in anesthetized dogs. Example 9 disclosed herein lowered Mean Arterial Pressure by 89% when it was dosed at 10 mg/kg cumulatively over the course of 90 minutes in anesthetized dogs.

T1 sequence (P27448 whole entry, species assumed): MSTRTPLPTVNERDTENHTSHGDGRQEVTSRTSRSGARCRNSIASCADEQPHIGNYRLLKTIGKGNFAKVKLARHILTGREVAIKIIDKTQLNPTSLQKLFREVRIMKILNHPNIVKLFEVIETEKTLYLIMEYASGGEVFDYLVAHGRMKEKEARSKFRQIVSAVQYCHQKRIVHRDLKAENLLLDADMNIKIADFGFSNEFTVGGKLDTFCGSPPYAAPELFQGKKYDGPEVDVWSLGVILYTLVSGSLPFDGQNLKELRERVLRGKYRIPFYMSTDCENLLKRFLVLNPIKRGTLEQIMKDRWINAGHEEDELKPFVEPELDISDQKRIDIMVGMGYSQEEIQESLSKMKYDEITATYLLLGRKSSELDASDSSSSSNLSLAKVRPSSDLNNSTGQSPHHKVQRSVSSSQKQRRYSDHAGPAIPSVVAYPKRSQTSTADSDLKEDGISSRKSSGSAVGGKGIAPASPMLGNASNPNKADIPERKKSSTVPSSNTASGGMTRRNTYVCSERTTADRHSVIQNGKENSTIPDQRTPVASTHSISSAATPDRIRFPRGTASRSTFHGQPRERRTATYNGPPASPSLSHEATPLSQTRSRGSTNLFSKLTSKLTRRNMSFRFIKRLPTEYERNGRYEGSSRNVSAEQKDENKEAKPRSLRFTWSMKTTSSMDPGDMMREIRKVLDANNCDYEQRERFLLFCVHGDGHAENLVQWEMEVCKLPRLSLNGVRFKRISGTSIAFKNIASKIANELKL

| Structure (SMILES) | IC50 (MARK3) [nM] | lowered Mean Arterial Pressure ([1]; 10 mg/kg cumulatively over the course of 90 minutes) [%] | lowered Mean Arterial Pressure ([1]; 5 mg/kg cumulatively over the course of 90 minutes) [%] |
| --- | --- | --- | --- |
| CCc1sc(C(=O)N[C@@H]2[C@@H](N)CCCC2(F)F)cc1-c1cnn2cc(C(F)(F)F)cnc12 [Example 6, N-[(1R,6S)-6-Amino-2,2-difluorocyclohexyl]-5-ethyl-4-[6-(trifluoromethyl)pyrazolo[1,5-a]pyrimindin-3-yl]thiophene-2-carboxamide] | 73 |  |  |
| Cc1sc(C(=O)N[C@@H]2[C@@H](N)CCCC2(F)F)cc1-c1cnn2cc(OC(F)F)cnc12 [Example 10, N-[(1R,6S)-6-amino-2,2-difluorocyclohexyl]-4-[6-(difluoromethoxy)pyrazolo[1,5-a]pyrimidin-3-yl]-5-methylthiophene-2-carboxamide] | 5 |  |  |
| Cc1sc(C(=O)N[C@@H]2[C@H](N)CCCC2(F)F)cc1-c1cnn2cc(OC(F)F)cnc12 [Example 9, N-[(1R,6R)-6-Amino-2,2-difluorocyclohexyl]-4-[6-(difluoromethoxy)pyrazolo[1,5-a]pyrimidin-3-yl]-5-methylthiophene-2-carboxamide] | 3 | 89 |  |
| CCc1sc(C(=O)N[C@@H]2[C@@H](N)CCCC2(F)F)cc1-c1cnn2cc(Cl)cnc12 [Example 4, N-[(1R,6S)-6-Amino-2,2-difluorocyclohexyl]-4-(6-chloropyrazolo[1,5-a]pyrimidin-3-yl)-5-ethylthiophene-2-carboxamide] | 27 |  | 25 |

Compounds with a lower IC50 (MARK3), results first:

| IC50 (MARK3) [nM] | Structure (SMILES) | lowered Mean Arterial Pressure ([1]; 10 mg/kg cumulatively over the course of 90 minutes) [%] | lowered Mean Arterial Pressure ([1]; 5 mg/kg cumulatively over the course of 90 minutes) [%] |
| --- | --- | --- | --- |
| 2 | CCOc1cnc2c(-c3cc(C(=O)N[C@@H]4[C@H](N)CCCC4(F)F)sc3CC)cnn2c1 [Example 15, N-[(1R,6R)-6-amino-2,2-difluorocyclohexyl]-4-(6-ethoxypyrazolo[1,5-a]pyrimidin-3-yl)-5-ethylthiophene-2-carboxamide] |  |  |
| 1 | Cc1sc(C(=O)N[C@@H]2CCCC[C@@H]2N)cc1-c1cnn2cc(-c3cnn(C)c3)cnc12 [reference compound] |  |  |
